Test results taken from patent publication US7053178B2, “Synthetic peptides and kits for diagnosis of anti-phospholipid syndrome” (Yeda Research Development Co., LTD, priority 1998, dated 2006).
Where no end group is shown, it is not given here.

What was measured:
[1] = tested on: experimental APS induced by anti-β2GPI mAb G-3; test: Murine experimental APS induced by G-3 mAb; format: in vivo, BALB/c mice; conditions: mice infused with G-3 mAb, peptide 40 μg/mouse daily 3 days, day 15
Procedure: (i) Mice: Female BALB/c mice, aged 10–12 weeks, were purchased from Tel-Aviv University Animal House, Israel. The females were caged overnight with BALB/c males and examined for vaginal plug next morning. The presence of the plug was considered as day 0 of pregnancy in all the studied groups. (j) Induction of murine experimental APS. Mice were infused intravenously with 20 μg of each one of the anti-β2GPI ILA-1, ILA-3, and G-3 mAbs at day 0 (the day at which a vaginal plug was observed following mating) (Blank et al., 1991), 6 hours later the mice received daily 40 μg/mouse of the tested peptides during 3 days. The mice were bled and sacrificed on day 15 of pregnancy. Fetal resorptions, activated partial thromboplastin time and platelet counts (markers of the APS-equivalent in mice) were determined as described (Blank et al., 1991). Significant fetal loss, thrombocytopenia and prolonged activated thromboplastin time (aPTT) were induced in naive mice following passive intravenous administration of the three anti-β2GPI mAbs ILA-1, ILA-3 and G-3, as described in Materials and Methods, section (j). The clinical manifestations of the experimental APS were prevented by infusion of the specific peptide monomers A, B, C which were delivered to the mice with the corresponding pathogenic anti-β2GPI mAbs, as shown in Table 2. […] Similarly, mice which were preinfused with control IgM and received a cocktail of the peptide monomers (A+B+C), were not affected.

anti-β2GPI ILA-3 mAb = test: U937 monocyte adhesion to HUVEC exposed to ILA-3 mAb; format: cell-based, human; conditions: ILA-3 mAb preincubated with peptide, 15 μM peptide
Procedure: FIGS. 3A–3C are graphs showing inhibition of U937 monocyte cell adhesion to HUVEC upon exposure to anti-β2GPI ILA-1, ILA-3 and G-3 mAbs and increasing concentrations of the inhibitory monomer peptides A, B and C, respectively, and of unrelated peptide D as control. The percentage of inhibition of adhesion was calculated as follows: % inhibition of adhesion=CPM in the presence of anti-β2GPI mAb−CPM in the presence of anti-β2GPI mAb and the tested peptide/CPM in the presence of anti-β2GPI mAb×100 (CPM=counts/min). Each point represents mean±SD of three different experiments.
(g) Adherence of U937 monocyte cells to endothelial cells in the presence of anti-β2GPI mAbs and the inhibitory peptides. This assay was performed as previously described (Carvalho et al., 1996). Briefly, U937 cells (a monocyte/macrophage-like cell line) were pretreated with heat-aggregated gamma-globulin for 30 min at 37° C. […] Radioactivity associated with adherence was quantified by beta-scintillation spectroscopy. The results were expressed as percent of added U937 cells that adhered and are presented as the mean±SD from 3–5 replicate wells.
The adhesion of monocytes to endothelial cells (EC) is considered a marker of EC activation. The percentage of adhesion is expressed as the portion of added U937 monocyte cells adhering to the HUVEC (thus reflecting the percentage of HUVEC coverage by the monocytes). […]

anti-β2GPI ILA-1 mAb = test: Cyto-ELISA: inhibition of ILA-1 mAb binding to HUVEC; design: species or system human; conditions: peptide concentration of 10 μM
Procedure: FIGS. 2A–2C are graphs showing inhibition of the anti-β2GPI ILA-1, ILA-3 and G-3 mAbs binding to human umbilical vein endothelial cells (HUVEC) by competition assays using increasing concentrations of the inhibitory monomer peptides A, B and C, respectively, and of unrelated peptide D as control. The percent of inhibition was calculated as in FIG. 1 above. Each point represents mean±SD of three different experiments.
(f) Anti-β2GPI mAb binding to endothelial cells in the presence of the inhibitory peptides. Human umbilical vein endothelial cells (HUVEC) were isolated as previously described and cultured under standard conditions (Jaffe et al., 1973). Briefly, umbilical cords were treated with collagenase (0.2% from Clostridium histolyticum, Boehringer) for 20 min at 37° C., cells were cultured in medium 199 with 20% FCS, 10 μg/ml growth supplement, 100 μg/ml heparin and antibiotics (streptomycin, penicillin), and used at passages 1–2 for plating onto gelatin-coated 96-well plates. Cyto-ELISA was performed as detailed before (Jaffe et al., 1973). Briefly, mAbs at different concentrations were added to HUVEC confluent wells, previously coated with 10 μg/ml β2GPI for 2 hours and fixed with 0.1% glutaraldehyde. The bound mAb was detected by further 1-hour incubation with alkaline phosphatase-conjugated goat anti-human IgM. […]

## CATLRVYKGG [Peptide C]
[1]
  % Fetal loss (Resorbed fetuses/Total fetuses): 7 ± 2%
  Platelet count: 1242 cells/mm^3 × 10^−3
  aPTT (activated partial thromboplastin time): 31 ± 4 s
[1]; listed as peptide C
  aPTT (activated partial thromboplastin time): 31 ± 4 s

## KDKATFGTHDG [Peptide B]
anti-β2GPI ILA-3 mAb
  inhibition of adhesion of U937 to HUVEC: 95%

## NTLKTPRVGG [Peptide A]
anti-β2GPI ILA-1 mAb
  inhibition of ILA-1 mAb binding to HUVEC: 95%
